Experimental data published in PubChem BioAssay (NCI).
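All cell lines were grown in 96-well plates and treated with compound for 48 hours. Abbreviation: GI50, concentration required for 50% inhibition of growth. The concentration for full growth arrest is given as TGI.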

Legend:
Assay in all cases: growth of human tumour cells (NCI), 48 h
NCI/ADR-RES ovarian = test system: NCI/ADR-RES ovarian
NCI-H23 lung = test system: NCI-H23 lung
MOLT-4 leukemia = test system: MOLT-4 leukemia
NCI-H226 lung = test system: NCI-H226 lung
LOX IMVI melanoma = test system: LOX IMVI melanoma
EKVX NSCLC = test system: EKVX NSCLC
DU-145 prostate = test system: DU-145 prostate
SK-MEL-28 melanoma = test system: SK-MEL-28 melanoma
KM12 colon = test system: KM12 colon
SNB-19 CNS = test system: SNB-19 CNS

Compound | GI50 (NCI/ADR-RES ovarian) | TGI (NCI/ADR-RES ovarian) | GI50 (NCI-H23 lung) | TGI (NCI-H23 lung) | GI50 (MOLT-4 leukemia) | TGI (MOLT-4 leukemia) | GI50 (NCI-H226 lung) | TGI (NCI-H226 lung) | GI50 (LOX IMVI melanoma) | TGI (LOX IMVI melanoma) | GI50 (EKVX NSCLC) | TGI (EKVX NSCLC) | GI50 (DU-145 prostate) | TGI (DU-145 prostate) | GI50 (SK-MEL-28 melanoma) | TGI (SK-MEL-28 melanoma) | GI50 (KM12 colon) | TGI (KM12 colon) | GI50 (SNB-19 CNS) | TGI (SNB-19 CNS)
Cc1nn(CNc2ccccc2C(F)(F)F)c(=S)n1/N=C/c1ccc(F)cc1 | > 100 µM | > 100 µM | > 100 µM | > 100 µM | 46.6 µM | > 100 µM | 43.7 µM | > 100 µM | > 100 µM | > 100 µM | 42 µM | > 100 µM | > 100 µM | > 100 µM | 50 µM | > 100 µM | > 100 µM | > 100 µM | 94 µM | > 100 µM
COc1ccc([C@@H](O)c2cc(-c3ncnc4cc(N5CCOCC5)ccc34)c(F)cc2Cl)nn1 | 4.87 µM | 95.4 µM | 8 µM | 94.6 µM | 1.08 µM | 41.1 µM | 3.82 µM | 60.4 µM | 2.84 µM | 24.8 µM | 5.35 µM | 42.9 µM | 3.89 µM | > 100 µM | 2.07 µM | 38.1 µM | 5.47 µM | 24.1 µM | 10.8 µM | > 100 µM
COc1cc(/C=C2\CN(C(=O)CCN3CCC(=NO)CC3)C/C(=C\c3cc(OC)c(OC)c(OC)c3)C2=O)cc(OC)c1OC | 2.71 µM | > 100 µM | 0.342 µM | 1.39 µM | 0.328 µM | 12.1 µM | 0.792 µM | 2.85 µM | 0.194 µM | 0.472 µM | 1.82 µM | 4.81 µM | 0.657 µM | 1.7 µM | 0.279 µM | 0.766 µM | 0.263 µM | 0.731 µM | 0.452 µM | 1.58 µM
